Assay [1] deals with T1, 3-oxo-5-alpha-steroid 4-dehydrogenase 1 (Homo sapiens, UniProt P18405).
T1 sequence (P18405 whole entry): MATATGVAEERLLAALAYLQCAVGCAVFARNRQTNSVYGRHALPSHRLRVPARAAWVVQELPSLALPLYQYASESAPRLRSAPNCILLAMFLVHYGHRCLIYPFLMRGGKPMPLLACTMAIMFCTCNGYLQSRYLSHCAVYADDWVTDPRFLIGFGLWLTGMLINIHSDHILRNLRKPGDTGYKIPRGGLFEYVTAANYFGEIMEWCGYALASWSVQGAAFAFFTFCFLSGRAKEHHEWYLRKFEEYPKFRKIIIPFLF
As to the kind of experiment: In vitro inhibition of recombinant human Steroid 5-alpha-reductase type I. Particulars: read-out: Ki app; call rule not given here.

Assay [2] has as its target T2, 3-oxo-5-alpha-steroid 4-dehydrogenase 2 (Homo sapiens, UniProt P31213).
T2 sequence (P31213 whole entry): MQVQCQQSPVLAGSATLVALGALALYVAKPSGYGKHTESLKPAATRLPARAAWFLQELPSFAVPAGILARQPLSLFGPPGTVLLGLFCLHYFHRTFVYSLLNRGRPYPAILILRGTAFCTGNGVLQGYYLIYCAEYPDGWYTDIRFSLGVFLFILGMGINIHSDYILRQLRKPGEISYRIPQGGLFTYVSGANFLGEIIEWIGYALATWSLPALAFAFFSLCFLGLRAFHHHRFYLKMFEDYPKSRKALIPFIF
Nature of the assay: In vitro inhibition of recombinant human Steroid 5-alpha-reductase type 2. The conditions noted are these: read-out: Ki app.

In assay [3] the target is T2, 3-oxo-5-alpha-steroid 4-dehydrogenase 2. Nature of the assay: In vitro inhibition of recombinant human Steroid 5-alpha-reductase type 2; No inhibition.

With `CN1C(=O)CC[C@@H]2c3ccc(Cl)cc3CC[C@H]21` (stereo in doubt; (+)) [BEXLOSTERIDE], the Ki in assay [1] worked out at 6 nM; in assay [2] it was 1000 nM.

On to `CN1C(=O)CC[C@@H]2c3ccc(Cl)cc3CC[C@H]21` (stereo in doubt; (-)) [BEXLOSTERIDE], for which the Ki turned out to be 4 nM in assay [1] and 1200 nM in assay [2].

On to `CN1C(=O)CCC2=C1CCc1cc(Cl)ccc12`, for which the Ki in assay [1] worked out at 17 nM; in assay [2], 455 nM.

Take `CN1C(=O)CC[C@@H]2c3ccc(Cl)cc3CC[C@@H]21` (stereo in doubt; (+)-3): the results for the Ki in assay [1] and in assay [2] were 15 nM and 1000 nM, respectively.

Turning to `CN1C(=O)CC[C@]2(C)c3ccc(Cl)cc3CC[C@H]12` (stereo in doubt; (-)-4), the Ki was 7000 nM in assay [1] and greater than 2500 nM in assay [2].

`CN1C(=O)CC[C@]2(C)c3ccc(Cl)cc3CC[C@@H]12` (stereo in doubt; (+)): the Ki in assay [1] was 9 nM; in assay [2], greater than 1000 nM.

Take `CN1C(=O)CC[C@]2(C)c3ccc(Cl)cc3CC[C@H]12` (stereo in doubt; (+)-4): the Ki in assay [1] is 4000 nM; in assay [2], greater than 2500 nM.

Regarding `CN1C(=O)CC[C@]2(C)c3ccc(Cl)cc3CC[C@@H]12` (stereo in doubt; (-)), the Ki in assay [1] was 10 nM; in assay [2], greater than 1000 nM.

Consider `CN1C(=O)CC[C@@H]2c3ccc(Cl)cc3CC[C@@H]21` (stereo in doubt; (-)-3), for which the results for the Ki in assay [1] and in assay [2] were 15 nM and 5400 nM, respectively.

For `CN1C(=O)CC[C@@]2(C)C1=CCc1cc(Cl)ccc12` (racemic), the Ki in assay [1] stood at 180 nM. Besides, the Ki app entry in assay [3] was “Not Active”.

The values are drawn from ChEMBL document CHEMBL1127900, “Preparative chiral HPLC separation of all possible stereoisomers of LY191704 and LY266111 and their in vitro inhibition of human types 1 and 2 steroid 5-reductases” (Bioorg Med Chem Lett, 1994).
